≈ marks a conversion by molar mass, not a printed value. Positions of bridges follow the written chain, without caps; N, C: chain ends. Non-standard residues stand in square brackets, D forms with d. Residues, ends and D or L forms follow the SMILES beside them. *: point of attachment. Ileψ(thiazoline)Cys = CC[C@H](C)[C@H](N)C1=N[C@H](C(=O)*)CS1; dOrn = NCCC[C@@H](N)C(=O)O
Columns and labels:
Clostridium perfringens = conditions: anaerobe, agar dilution, read after 24-hour incubation
Propionibacterium acnes = assay: Activity against anaerobic bacteria, agar-dilution MIC; type: cell-based; conditions: Propionibacterium acnes; anaerobe, agar dilution, read after 24-hour incubation
Staphylococcus aureus = assay: In vivo activity against experimentally-induced infection in mice; conditions: doses administered subcutaneously to mice 1 and 4 hours postinfection
Procedure: (§1) The A83850 antibiotics have also shown in vivo antimicrobial activity against experimentally-induced infections in laboratory animals. When two doses of test compound were administered to mice experimentally infected with the test organism, the activity observed was measured as an ED50 value [effective dose in mg/kg to protect 50% of the test animals: see Warren Wick, et al., J. Bacteriol. 81, 233-235 (1961)].
(§2) ^a mg/kg × 2; doses administered subcutaneously to mice 1 and 4

Streptococcus pneumoniae = assay: as above; conditions: doses administered subcutaneously to mice 1 and 4 hours postinfection
Procedure: as §1, §2

Streptococcus pyogenes = assay: as above; conditions: doses administered subcutaneously to mice 1 and 4 hours postinfection
Procedure: as §1, §2

Fusobacterium symbiosum = conditions: anaerobe, agar dilution, read after 24-hour incubation
Bacteriodes fragilis = assay: Activity against anaerobic bacteria, agar-dilution MIC; type: cell-based; conditions: Bacteriodes fragilis; anaerobe, agar dilution, read after 24-hour incubation
Bacteroides corrodens = assay: as above; type: cell-based; conditions: Bacteroides corrodens; anaerobe, agar dilution, read after 24-hour incubation
[1] = system: Streptococcus pneumoniae Park 1; assay: microbe, parasite or virus in culture; type: cell-based; conditions: Streptococcus pneumoniae Park 1; agar dilution
Procedure: (§3) The MIC's in Table VII were determined by standard agar-dilution assays.

[2] = system: Peptostreptococcus anaerobius; assay: Activity against anaerobic bacteria, agar-dilution MIC; type: cell-based; conditions: anaerobe, agar dilution, read after 24-hour incubation
[3] = system: Peptostreptococcus intermedius; assay: as above; type: cell-based; conditions: Peptostreptococcus intermedius; anaerobe, agar dilution, read after 24-hour incubation
Clostridium difficile = assay: as above; conditions: Clostridium difficile; anaerobe, agar dilution, read after 24-hour incubation
[4] = system: Peptococcus asaccharolyticus; assay: as above; conditions: Peptococcus asaccharolyticus; anaerobe, agar dilution, read after 24-hour incubation
Peptococcus prevoti = assay: as above; conditions: Peptococcus prevoti; anaerobe, agar dilution, read after 24-hour incubation
[5] = system: Bacteriodes thetaiotaomicron; assay: as above; conditions: Bacteriodes thetaiotaomicron; anaerobe, agar dilution, read after 24-hour incubation
Eubacterium aerofaciens = conditions: anaerobe, agar dilution, read after 24-hour incubation
[6] = system: Fusobacterium necrophorum; conditions: anaerobe, agar dilution, read after 24-hour incubation
[7] = system: Staphylococcus epidermidis 222; type: cell-based; conditions: Staphylococcus epidermidis 222; agar dilution
Procedure: as §3

[8] = system: Staphylococcus epidermidis 270; type: cell-based; conditions: Staphylococcus epidermidis 270; agar dilution
Procedure: as §3

[9] = system: Enterococcus faecalis 2041; type: cell-based; conditions: Enterococcus faecalis 2041; agar dilution
Procedure: as §3

[10] = system: Staphylococcus aureus V41; type: cell-based; conditions: Staphylococcus aureus V41; agar dilution
Procedure: as §3

[11] = system: Staphylococcus aureus X400; type: cell-based; conditions: Staphylococcus aureus X400; agar dilution
Procedure: as §3

[12] = system: Streptococcus pyogenes C203; type: cell-based; conditions: Streptococcus pyogenes C203; agar dilution
Procedure: as §3

Enterococcus faecium X66 = type: cell-based; conditions: Enterococcus faecium X66; agar dilution
Procedure: as §3

[13] = system: Staphylococcus aureus X1.1; type: cell-based; conditions: Staphylococcus aureus X1.1; agar dilution
Procedure: as §3

[14] = system: Bacteriodes melaninogenicus; assay: Activity against anaerobic bacteria, agar-dilution MIC; type: cell-based; conditions: Bacteriodes melaninogenicus; anaerobe, agar dilution, read after 24-hour incubation
Bacteriodes vulgatis = assay: as above; conditions: Bacteriodes vulgatis; anaerobe, agar dilution, read after 24-hour incubation
Clostridium septicum = conditions: anaerobe, agar dilution, read after 24-hour incubation
[15] = system: Culture A83850 (Amycolatopsis albus NRRL 18532); assay: Resistance of culture A83850 to antibiotics, sensitivity discs on seeded ISP No. 2 agar plates; type: cell-based; conditions: disc content printed per antibiotic
Procedure: Resistance to antibiotics was measured by padding antibiotic sensitivity discs onto the surface of seeded ISP No. 2 agar plates.

Structure (SMILES): CC(C)C[C@H](C(=O)N[C@H]1C(=O)N[C@@H](CC(N)=O)C(=O)N[C@H]2C(=O)N[C@H]3C(=O)N[C@H](C(=O)N[C@H](C(=O)O)c4cc(O)cc(O)c4-c4cc3ccc4O)[C@H](O)c3ccc(c(Cl)c3)Oc3cc2cc(c3O[C@@H]2O[C@H](CO)[C@@H](O)[C@H](O)[C@H]2O[C@H]2C[C@](C)(N)C(=O)[C@H](C)O2)Oc2ccc(cc2Cl)[C@H]1O)N(C)C [A83850A]
- MIC (Clostridium perfringens): 2 µg/mL (≈ 1.37 µM)
- MIC (Propionibacterium acnes): 8.0 µg/mL (≈ 5.47 µM)
- ED50 Value (Staphylococcus aureus): 2.87 mg/kg × 2
- ED50 Value (Streptococcus pneumoniae): 2.73 mg/kg × 2
- ED50 Value (Streptococcus pyogenes): 3.62 mg/kg × 2
- MIC (Fusobacterium symbiosum): 4 µg/mL (≈ 2.74 µM)
- MIC (Bacteriodes fragilis): 16.0 to 32.0 µg/mL
- MIC (Bacteroides corrodens): 32 µg/mL (≈ 21.9 µM)
- MIC [1]: 1.0 µg/mL (≈ 0.684 µM)
- MIC [2]: 32 µg/mL (≈ 21.9 µM)
- MIC [3]: 2.0 µg/mL (≈ 1.37 µM)
- MIC (Clostridium difficile): 4 µg/mL (≈ 2.74 µM)
- MIC [4]: 16 µg/mL (≈ 10.9 µM)
- MIC (Peptococcus prevoti): 16 µg/mL (≈ 10.9 µM)
- MIC [5]: 64 µg/mL (≈ 43.8 µM)
- MIC (Eubacterium aerofaciens): 2 µg/mL (≈ 1.37 µM)
- MIC [6]: 1.0 µg/mL (≈ 0.684 µM)
- MIC [7]: 2.0 µg/mL (≈ 1.37 µM)
- MIC [8]: 4.0 µg/mL (≈ 2.74 µM)
- MIC [9]: 8.0 µg/mL (≈ 5.47 µM)
- MIC [10]: 2.0 µg/mL (≈ 1.37 µM)
- MIC [11]: 2.0 µg/mL (≈ 1.37 µM)
- MIC [12]: 1.0 µg/mL (≈ 0.684 µM)
- MIC (Enterococcus faecium X66): 2.0 µg/mL (≈ 1.37 µM)
- MIC [13]: 1.0 µg/mL (≈ 0.684 µM)
- MIC [14]: 16 µg/mL (≈ 10.9 µM)
- MIC (Bacteriodes vulgatis): 16 µg/mL (≈ 10.9 µM)
- MIC (Clostridium septicum): 2 µg/mL (≈ 1.37 µM)

Structure (SMILES): CN[C@H](CC(C)C)C(=O)N[C@H]1C(=O)N[C@@H](CC(N)=O)C(=O)N[C@H]2C(=O)N[C@H]3C(=O)N[C@H](C(=O)N[C@H](C(=O)O)c4cc(O)cc(O)c4-c4cc3ccc4O)[C@H](O)c3ccc(c(Cl)c3)Oc3cc2cc(c3O[C@@H]2O[C@H](CO)[C@@H](O)[C@H](O)[C@H]2O[C@H]2C[C@](C)(N)C(=O)[C@H](C)O2)Oc2ccc(cc2Cl)[C@H]1O [A83850B]
- MIC (Clostridium perfringens): 2 µg/mL (≈ 1.38 µM)
- MIC (Propionibacterium acnes): 8.0 µg/mL (≈ 5.53 µM)
- ED50 Value (Staphylococcus aureus): 2.87 mg/kg × 2
- ED50 Value (Streptococcus pneumoniae): 0.98 mg/kg × 2
- ED50 Value (Streptococcus pyogenes): 2.19 mg/kg × 2
- MIC (Fusobacterium symbiosum): 2 µg/mL (≈ 1.38 µM)
- MIC (Bacteriodes fragilis): 16.0 to 32.0 µg/mL
- MIC (Bacteroides corrodens): 32 µg/mL (≈ 22.1 µM)
- MIC [1]: 0.125 µg/mL (≈ 0.0864 µM)
- MIC [2]: 16 µg/mL (≈ 11.1 µM)
- MIC [3]: 2.0 µg/mL (≈ 1.38 µM)
- MIC (Clostridium difficile): 2 µg/mL (≈ 1.38 µM)
- MIC [4]: 2 µg/mL (≈ 1.38 µM)
- MIC (Peptococcus prevoti): 2 µg/mL (≈ 1.38 µM)
- MIC [5]: 64 µg/mL (≈ 44.2 µM)
- MIC (Eubacterium aerofaciens): 2 µg/mL (≈ 1.38 µM)
- MIC [6]: 1.0 µg/mL (≈ 0.691 µM)
- MIC [7]: 1.0 µg/mL (≈ 0.691 µM)
- MIC [8]: 1.0 µg/mL (≈ 0.691 µM)
- MIC [9]: 4.0 µg/mL (≈ 2.76 µM)
- MIC [10]: 1.0 µg/mL (≈ 0.691 µM)
- MIC [11]: 1.0 µg/mL (≈ 0.691 µM)
- MIC [12]: 0.5 µg/mL (≈ 0.345 µM)
- MIC (Enterococcus faecium X66): 1.0 µg/mL (≈ 0.691 µM)
- MIC [13]: 0.5 µg/mL (≈ 0.345 µM)
- MIC [14]: 32 µg/mL (≈ 22.1 µM)
- MIC (Bacteriodes vulgatis): 16 µg/mL (≈ 11.1 µM)
- MIC (Clostridium septicum): 1.0 µg/mL (≈ 0.691 µM)

Structure (SMILES): CC(C)C[C@H](C(=O)N[C@H]1C(=O)N[C@@H](CC(N)=O)C(=O)N[C@H]2C(=O)N[C@H]3C(=O)N[C@H](C(=O)N[C@H](C(=O)O)c4cc(O)cc(O)c4-c4cc3ccc4O)[C@H](O)c3ccc(c(Cl)c3)Oc3cc2cc(c3O[C@@H]2O[C@H](CO)[C@@H](O)[C@H](O)[C@H]2O[C@H]2C[C@](C)(N)[C@@H](O)[C@H](C)O2)Oc2ccc(cc2Cl)[C@H]1O)N(C)C [Reduced A83850A]
- ED50 Value (Staphylococcus aureus): 7.10 mg/kg × 2
- ED50 Value (Streptococcus pneumoniae): 3.88 mg/kg × 2
- ED50 Value (Streptococcus pyogenes): 2.30 mg/kg × 2
- MIC [1]: 0.25 µg/mL (≈ 0.171 µM)
- MIC [7]: 4.0 µg/mL (≈ 2.73 µM)
- MIC [8]: 4.0 µg/mL (≈ 2.73 µM)
- MIC [9]: 8.0 µg/mL (≈ 5.47 µM)
- MIC [10]: 2.0 µg/mL (≈ 1.37 µM)
- MIC [11]: 2.0 µg/mL (≈ 1.37 µM)
- MIC [12]: 2.0 µg/mL (≈ 1.37 µM)
- MIC (Enterococcus faecium X66): 2.0 µg/mL (≈ 1.37 µM)
- MIC [13]: 2.0 µg/mL (≈ 1.37 µM)

Structure (SMILES): CN[C@H](CC(C)C)C(=O)N[C@H]1C(=O)N[C@@H](CC(N)=O)C(=O)N[C@H]2C(=O)N[C@H]3C(=O)N[C@H](C(=O)N[C@H](C(=O)O)c4cc(O)cc(O)c4-c4cc3ccc4O)[C@H](O)c3ccc(c(Cl)c3)Oc3cc2cc(c3O[C@@H]2O[C@H](CO)[C@@H](O)[C@H](O)[C@H]2O[C@H]2C[C@](C)(N)[C@@H](O)[C@H](C)O2)Oc2ccc(cc2Cl)[C@H]1O [Reduced A83850B]
- ED50 Value (Staphylococcus aureus): 2.12 mg/kg × 2
- ED50 Value (Streptococcus pneumoniae): 1.99 mg/kg × 2
- ED50 Value (Streptococcus pyogenes): 1.36 mg/kg × 2
- MIC [1]: 0.125 µg/mL (≈ 0.0863 µM)
- MIC [7]: 2.0 µg/mL (≈ 1.38 µM)
- MIC [8]: 2.0 µg/mL (≈ 1.38 µM)
- MIC [9]: 4.0 µg/mL (≈ 2.76 µM)
- MIC [10]: 1.0 µg/mL (≈ 0.69 µM)
- MIC [11]: 1.0 µg/mL (≈ 0.69 µM)
- MIC [12]: 0.5 µg/mL (≈ 0.345 µM)
- MIC (Enterococcus faecium X66): 1.0 µg/mL (≈ 0.69 µM)
- MIC [13]: 1.0 µg/mL (≈ 0.69 µM)

Structure (SMILES): CC[C@H](C)[C@H](N)C1=N[C@H](C(=O)N[C@@H](CC(C)C)C(=O)N[C@H](CCC(=O)O)C(=O)N[C@H](C(=O)N[C@H]2CCCCNC(=O)[C@H](CC(N)=O)NC(=O)[C@@H](CC(=O)O)NC(=O)[C@H](Cc3cnc[nH]3)NC(=O)[C@@H](Cc3ccccc3)NC(=O)[C@H]([C@@H](C)CC)NC(=O)[C@@H](CCCN)NC2=O)[C@@H](C)CC)CS1 [bacitracin] ({Ileψ(thiazoline)Cys}-L[dE]IK[dOrn]I[dF]H[dD]N; lactam 4-C)
- Resistance or inhibition of culture A83850 by antibiotic disc [15]: resistant

Structure (SMILES): CC(=O)OCC1=C(C(=O)O)N2C(=O)[C@@H](NC(=O)Cc3cccs3)[C@H]2SC1 [cephalothin]
- Resistance or inhibition of culture A83850 by antibiotic disc [15]: inhibited

Structure (SMILES): CCC[C@@H]1C[C@@H](C(=O)N[C@@H]([C@H]2O[C@H](SC)[C@H](O)[C@@H](O)[C@H]2O)[C@@H](C)O)N(C)C1 [lincomycin]
- Resistance or inhibition of culture A83850 by antibiotic disc [15]: inhibited
